{
  "source": "patent US7335373B2",
  "about": "“Biocidal siloxane coating material containing N-halogenated amine and amide functional groups” (Auburn University, priority 2003, dated 2008)",
  "key": {"[1]": {"settings": "after 5 washing cycles"}, "[2]": {"assay": "Oxidative chlorine loading by iodometric/thiosulfate titration", "settings": "cotton fabric treated directly with 2% by weight TTDD, chlorinated in 10 vol % bleach at pH 8 for 30 minutes"}},
  "data": [
    {"smiles": "CC1(C)CC2(CC(C)(C)N1)NC(=O)NC2=O", "note": "[TTDD]", "values": [
      {"measurement": "titratable chlorine after washing", "setting": "[1]; TTDD-treated chlorinated cotton fabric", "value": "no titratable chlorine"},
      {"measurement": "rechlorination after washing", "setting": "[1]; TTDD-treated cotton fabric", "value": "could not be rechlorinated"},
      {"measurement": "Cl^+ loading", "setting": "[2]", "value": 0.57, "unit": "%"}
    ]}
  ]
}
